{"source": "paper PMC8413904", "about": "(Pharmacology Research & Perspectives, 2021)", "key": {"[1]": {"tested_on": "cultured rat brain cortical neurons", "experiment": "Dynamic calcium assay (Fluo‐8)", "assay_type": "cell-based", "method": "(§1) All animal experimental procedures and housing have been approved by the Institutional Animal Care and Use Committee (IACUC) protocol #18‐015 of Virginia Tech. Embryonic day 18 (E18) rat brain tissue samples were obtained from adult pregnant SD rats. Rat brain primary cortical, striatal, and cerebellar neurons were cultured on poly‐d‐lysine coated 96‐well plates for 14 days in vitro (DIV14) before using for the experiments. Primary rat neuron culture was performed as previously published.[44] Briefly, each well of a 96 well plate was loaded with 50 000 cells and grown in 200 µl neurobasal media supplemented with B27, glutamax, penicillin, streptomycin. One hundred microliters of media was replaced with fresh media once in 4 days. Eight to thirteen fetus were obtained from each pregnant rat. Brain tissue from these fetus were pooled to obtain the neurons. Cortical, striatal, and cerebellar neuron assays were carried out at different time points.\nDynamic calcium assay was carried out, using Fluo‐8 no‐wash kit (abcam, ab112129), as per the manufacturer's instructions with minor modifications to fit with experimental necessities. On DIV14, all 200 μl of media was removed and replaced it with 100 μl of HBSS and 100 μl of Fluo‐8 dye loading solution. The plates were incubated at 37°C for 30 min and at room temperature for 30 min. […] Costar 96‐well clear bottom black side plates were read from the bottom, nine times, with 60 s intervals between each read. Temperature was set at 37°C and reading speed was 100 ms."}, "[2]": {"tested_on": "cultured rat brain cortical neurons", "experiment": "Na^+ assay (CoroNa green‐AM)", "assay_type": "cell-based", "method": "as §1\nFor Na^+ assay, DIV14 neurons were washed with HBSS and treated with freshly prepared CoroNa green‐AM dye (ThermoFisher, cat # C36676) and incubated for 45 min in 37°C. […] RFU values of background control and treatments were plotted to identify the effect of CNS4 on NMDA‐induced Na^+ flux in the neurons."}, "GluN1/2D": {"target": "GluN1/2D (UniProt O15399+P35439)", "sequence (O15399 28-1336, other chains not shown)": "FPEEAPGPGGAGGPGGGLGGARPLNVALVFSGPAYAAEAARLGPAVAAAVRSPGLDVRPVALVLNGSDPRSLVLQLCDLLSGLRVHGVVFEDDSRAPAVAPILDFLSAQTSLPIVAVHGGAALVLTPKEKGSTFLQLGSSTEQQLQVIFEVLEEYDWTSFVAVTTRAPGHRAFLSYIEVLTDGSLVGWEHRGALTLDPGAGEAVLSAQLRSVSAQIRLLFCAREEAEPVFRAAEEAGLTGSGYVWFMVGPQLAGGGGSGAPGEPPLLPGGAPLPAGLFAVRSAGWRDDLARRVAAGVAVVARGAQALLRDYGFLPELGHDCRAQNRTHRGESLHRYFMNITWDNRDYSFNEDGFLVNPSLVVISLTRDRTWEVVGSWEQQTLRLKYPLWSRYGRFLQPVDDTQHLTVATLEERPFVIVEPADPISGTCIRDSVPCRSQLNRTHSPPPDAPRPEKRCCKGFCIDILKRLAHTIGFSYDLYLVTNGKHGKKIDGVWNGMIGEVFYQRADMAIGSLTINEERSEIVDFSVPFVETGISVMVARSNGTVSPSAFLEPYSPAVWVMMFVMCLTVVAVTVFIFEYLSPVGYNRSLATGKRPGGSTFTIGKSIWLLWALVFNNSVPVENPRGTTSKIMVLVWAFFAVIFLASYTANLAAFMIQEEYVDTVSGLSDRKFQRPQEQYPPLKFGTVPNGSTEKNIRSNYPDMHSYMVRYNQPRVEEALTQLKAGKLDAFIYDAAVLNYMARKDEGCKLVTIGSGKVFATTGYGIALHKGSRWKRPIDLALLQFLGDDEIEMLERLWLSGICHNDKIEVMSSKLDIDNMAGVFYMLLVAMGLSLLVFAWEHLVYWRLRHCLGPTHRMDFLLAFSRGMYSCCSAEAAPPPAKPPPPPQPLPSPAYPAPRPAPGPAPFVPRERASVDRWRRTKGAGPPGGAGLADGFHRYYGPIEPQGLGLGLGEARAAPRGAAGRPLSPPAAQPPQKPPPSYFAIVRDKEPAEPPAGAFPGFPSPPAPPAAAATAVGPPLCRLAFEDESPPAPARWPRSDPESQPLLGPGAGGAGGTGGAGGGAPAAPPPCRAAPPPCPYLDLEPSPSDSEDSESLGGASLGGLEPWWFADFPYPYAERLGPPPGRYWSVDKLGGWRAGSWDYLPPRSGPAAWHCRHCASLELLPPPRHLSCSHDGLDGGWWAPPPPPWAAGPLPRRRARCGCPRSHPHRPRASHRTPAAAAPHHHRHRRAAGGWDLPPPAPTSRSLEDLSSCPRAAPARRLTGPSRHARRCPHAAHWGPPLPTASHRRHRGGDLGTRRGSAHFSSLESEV", "experiment": "TEVC electrophysiology dose–response in xenopus oocytes", "assay_type": "cell-based", "set-up": "host or cells: Xenopus oocytes (cRNA injection)", "from_the_text": "(§4) NMDAR constructs: cDNA encoding the NMDAR1a subunit (GluN1a) was obtained from Dr. Nakanishi. cDNA encoding the GluN2B (pci_sepGluN2B) was developed initially in the Malinow lab[36] and purchased from Addgene (cat# 23998). cDNA encoding the GluN2C and GluN2D were purchased from GenScript. Mutated GluN1, 2A and 2B cDNA constructs capable of assembling as GluN1/2A/2B triheteromeric (1/2AB) receptors[37] were obtained from Dr. Paoletti (Laboratoire de Neurobiologie, CNRS). […] Plasmids were linearized with NotI (GluN1a) or Avrll (GluN2B), or BstB1 (GluN2C and GluN2D) and transcribed in vitro with T7 (GluN1a, GluN1/2A, GluN2B, GluN2C, & GluN2D) RNA polymerase using the mMessage mMachine transcription kits (Invitrogen by Thermo Fisher Scientific).\n(§5) Stage IV frog oocytes were obtained from Xenopus‐I. NMDAR subunit cRNAs were suspended in nuclease‐free sterile water. GluN1A, GluN2B, GluN2C, GluN2D, and GluN1/2A/2B cRNAs were mixed in a ratio of 1:1–3. 50 nl of the final cRNA mixture was microinjected (40–70 ng total) into the oocyte cytoplasm. Oocytes were incubated in ND‐96 solution at 18^◦C prior to electrophysiological recordings (1–3 days).\nElectrophysiological responses were measured using a standard two‐microelectrode voltage‐clamp workstation [Warner Instruments (Hamden, Connecticut) model OC‐725C] designed to provide a fast clamp of large cells. The recording buffer contained 116 mM NaCl, 2 mM KCl, 0.3 mM BaCl2, and 5 mM HEPES, pH 7.4. Response magnitude was determined in xenopus oocytes expressing different NMDAR subunits (GluN1/2A, 1/2B, 1/2C, 1/2D, and 1/2A/2B) by the steady plateau response elicited by bath application of different agonist concentrations. […] Response amplitudes for functional NMDARs were generally between 0.1 and 2 μA. […] Dose–response relationships were fit to an appropriate curve‐fitting equation using GraphPad Prism‐7. Nonlinear regression was used to calculate EC50 and/or percentage maximal response. […] Statistical significance was determined at the overall alpha level .05, using appropriate statistical methods as described in each figure captions."}, "GluN1/2A [3]": {"target": "T1, GluN1/2A (UniProt P35439+Q12879)", "T1 sequence (Q12879 23-1464, other chains not shown)": "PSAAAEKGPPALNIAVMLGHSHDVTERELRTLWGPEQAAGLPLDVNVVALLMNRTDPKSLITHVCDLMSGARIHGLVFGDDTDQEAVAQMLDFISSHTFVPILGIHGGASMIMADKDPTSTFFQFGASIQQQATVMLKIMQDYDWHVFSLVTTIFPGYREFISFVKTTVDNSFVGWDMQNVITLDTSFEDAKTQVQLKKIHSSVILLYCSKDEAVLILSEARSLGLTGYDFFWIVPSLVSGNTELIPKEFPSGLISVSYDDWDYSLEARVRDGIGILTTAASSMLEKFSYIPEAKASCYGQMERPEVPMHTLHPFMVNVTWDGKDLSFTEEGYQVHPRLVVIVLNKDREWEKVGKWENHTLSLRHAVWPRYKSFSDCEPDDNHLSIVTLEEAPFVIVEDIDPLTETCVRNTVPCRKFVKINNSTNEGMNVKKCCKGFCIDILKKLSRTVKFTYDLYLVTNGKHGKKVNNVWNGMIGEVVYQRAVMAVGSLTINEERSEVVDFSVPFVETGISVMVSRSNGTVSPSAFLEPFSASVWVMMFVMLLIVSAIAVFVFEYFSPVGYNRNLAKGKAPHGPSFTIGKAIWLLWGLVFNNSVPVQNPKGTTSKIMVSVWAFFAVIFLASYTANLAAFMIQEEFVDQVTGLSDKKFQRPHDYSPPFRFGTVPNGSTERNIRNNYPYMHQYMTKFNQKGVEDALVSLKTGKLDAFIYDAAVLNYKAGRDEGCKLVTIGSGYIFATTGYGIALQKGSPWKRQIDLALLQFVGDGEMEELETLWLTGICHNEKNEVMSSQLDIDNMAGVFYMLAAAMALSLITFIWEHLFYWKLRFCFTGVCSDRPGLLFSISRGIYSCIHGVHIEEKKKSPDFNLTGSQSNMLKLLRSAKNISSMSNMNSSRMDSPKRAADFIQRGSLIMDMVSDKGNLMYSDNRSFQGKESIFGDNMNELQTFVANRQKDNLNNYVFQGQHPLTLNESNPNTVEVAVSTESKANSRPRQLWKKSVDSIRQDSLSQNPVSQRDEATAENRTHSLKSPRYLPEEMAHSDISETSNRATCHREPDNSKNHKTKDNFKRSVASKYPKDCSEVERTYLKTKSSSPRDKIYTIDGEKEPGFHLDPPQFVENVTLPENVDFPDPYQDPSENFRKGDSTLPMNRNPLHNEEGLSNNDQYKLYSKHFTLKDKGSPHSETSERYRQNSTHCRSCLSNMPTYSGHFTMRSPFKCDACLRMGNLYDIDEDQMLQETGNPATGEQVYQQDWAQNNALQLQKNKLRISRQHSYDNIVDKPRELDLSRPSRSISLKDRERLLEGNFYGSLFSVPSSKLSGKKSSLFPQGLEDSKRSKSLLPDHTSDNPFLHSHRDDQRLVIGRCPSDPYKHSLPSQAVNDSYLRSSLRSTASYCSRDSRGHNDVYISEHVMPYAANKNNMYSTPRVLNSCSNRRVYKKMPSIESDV", "experiment": "TEVC electrophysiology dose–response in xenopus oocytes", "assay_type": "cell-based", "from_the_text": "as §4, §5\nElectrophysiological responses were measured using a standard two‐microelectrode voltage‐clamp workstation [Warner Instruments (Hamden, Connecticut) model OC‐725C] designed to provide a fast clamp of large cells. The recording buffer contained 116 mM NaCl, 2 mM KCl, 0.3 mM BaCl2, and 5 mM HEPES, pH 7.4. Response magnitude was determined in xenopus oocytes expressing different NMDAR subunits (GluN1/2A, 1/2B, 1/2C, 1/2D, and 1/2A/2B) by the steady plateau response elicited by bath application of different agonist concentrations. […] Response amplitudes for functional NMDARs were generally between 0.1 and 2 μA. […] Dose–response relationships were fit to an appropriate curve‐fitting equation using GraphPad Prism‐7. Nonlinear regression was used to calculate EC50 and/or percentage maximal response. Curve fittings were done using the following equations as performed in the previous studies[34], [39]: Y = 100/(1 + 10^(LogEC50‐X)) or Y = Bottom + (Top − Bottom)/(1+10^(LogEC50‐X)). Statistical significance was determined at the overall alpha level .05, using appropriate statistical methods as described in each figure captions."}, "[4]": {"tested_on": "cultured rat brain cerebellar neurons", "experiment": "Dynamic calcium assay (Fluo‐8)", "assay_type": "cell-based", "details": "300 µM NMDA alone", "method": "as §1\n(§2) Dynamic calcium assay was carried out, using Fluo‐8 no‐wash kit (abcam, ab112129), as per the manufacturer's instructions with minor modifications to fit with experimental necessities. On DIV14, all 200 μl of media was removed and replaced it with 100 μl of HBSS and 100 μl of Fluo‐8 dye loading solution. The plates were incubated at 37°C for 30 min and at room temperature for 30 min. A volume of 100 µL of test chemicals (3× of desired final concentration) was added to the plates immediately before running the calcium flux assay and read the fluorescence intensity at 490/525 nm (ex/em) using Synergy microplate reader, BioTek, VT. Costar 96‐well clear bottom black side plates were read from the bottom, nine times, with 60 s intervals between each read. Temperature was set at 37°C and reading speed was 100 ms."}, "[5]": {"tested_on": "cultured rat brain striatal neurons", "experiment": "Dynamic calcium assay (Fluo‐8)", "assay_type": "cell-based", "details": "300 µM NMDA alone", "method": "as §1, §2"}, "[6]": {"tested_on": "cultured rat brain cerebellar neurons", "experiment": "Na^+ assay (CoroNa green‐AM)", "assay_type": "cell-based", "details": "300 µM NMDA alone", "method": "as §1\n(§3) For Na^+ assay, DIV14 neurons were washed with HBSS and treated with freshly prepared CoroNa green‐AM dye (ThermoFisher, cat # C36676) and incubated for 45 min in 37°C. Plates were washed twice with HBSS before adding drug solutions dissolved in HBSS, and read at 492/516 nm (ex/em) using a plate reader. RFU values of background control and treatments were plotted to identify the effect of CNS4 on NMDA‐induced Na^+ flux in the neurons."}, "[7]": {"tested_on": "cultured rat brain striatal neurons", "experiment": "Na^+ assay (CoroNa green‐AM)", "assay_type": "cell-based", "details": "300 µM NMDA alone", "method": "as §1, §3"}, "GluN1/2A [8]": {"target": "T1, GluN1/2A", "set-up": "method as in PMID 30553788", "details": "at −60 mV; read-out: Mg^2+ IC50; cited from earlier work"}}, "note": "Where two headings read alike, the source gives them in different places.", "data": [{"molecule": "N[C@@H](CCC(=O)O)C(=O)O", "note": "[glutamate, L‐glutamic acid, reference compound]", "values": [{"measurement": "Ca^2+ signal, mean rfu", "setting": "[1]; 100 µM glutamate, Figure 8A, baseline 7673", "result": 21956, "unit": "rfu"}, {"measurement": "Na^+ signal, mean rfu", "setting": "[2]; 100 µM glutamate, Figure 8B, baseline vs glutamate 514004 vs. 505677, p = .4055", "result": 505677, "unit": "rfu"}, {"measurement": "EC50", "setting": "GluN1/2D", "result": "0.34 ± 0.01", "unit": "µM"}]}, {"molecule": "CC(C(O)c1ccc(O)cc1)N1CCC(Cc2ccccc2)CC1", "note": "(stereo not shown) [ifenprodil, reference compound]", "values": [{"measurement": "IC50", "setting": "GluN1/2A [3]", "result": "202 ± 25.1", "unit": "µM"}]}, {"molecule": "NCCCC(=O)O", "note": "[GABA, reference compound]", "values": [{"measurement": "Ca^2+ signal, mean rfu", "setting": "[1]; 100 µM GABA, baseline 7673, p < .0001", "result": 4196, "unit": "rfu"}]}, {"molecule": "CC12CC3CC(C)(C1)CC(N)(C3)C2", "note": "[memantine, reference compound]", "values": [{"measurement": "effect on NMDA‐induced Ca^2+ signal", "setting": "[1]; 50 µM memantine added to NMDA, Figure 6", "result": "reversed the NMDA‐induced Ca^2+ signal back to the control level"}, {"measurement": "Na^+ signal, mean rfu", "setting": "[2]; NMDA plus 50 µM memantine, p < .01 vs NMDA alone (400251)", "result": 412868, "unit": "rfu"}]}, {"molecule": "picrotoxin [reference compound]", "values": [{"measurement": "effect on GABA mediated reduction of baseline Ca^2+ response", "setting": "[1]; 50 µM picrotoxin + 100 µM GABA", "result": "unaltered"}]}, {"molecule": "CN[C@H](CC(=O)O)C(=O)O", "note": "[NMDA, N‐methyl D‐aspartate, reference compound]", "values": [{"measurement": "Ca^2+ signal, mean rfu", "setting": "[1]; 300 µM NMDA alone", "result": 26711, "unit": "rfu"}, {"measurement": "Ca^2+ signal, rfu", "setting": "[4]", "result": 12810, "unit": "rfu"}, {"measurement": "Ca^2+ signal, mean rfu", "setting": "[5]", "result": 20964, "unit": "rfu"}, {"measurement": "Na^+ signal compared to the background control", "setting": "[6]", "result": "did not significantly increase"}, {"measurement": "Na^+ signal compared to the background control", "setting": "[7]", "result": "did not significantly increase"}]}, {"molecule": "[Cl-].[Cl-].[Mg+2]", "note": "[MgCl2]", "values": [{"measurement": "IC50", "setting": "GluN1/2A [8]", "result": 40, "unit": "µM"}]}, {"molecule": "CC(=O)OCC[N+](C)(C)C", "note": "[acetylcholine, reference compound]", "values": [{"measurement": "Ca^2+ signal, mean rfu", "setting": "[1]; 100 µM acetylcholine, baseline 7673, p < .0001", "result": 6222, "unit": "rfu"}]}, {"molecule": "C[N+](C)(C)CCCCCC[N+](C)(C)C", "note": "[Hexamethonium, reference compound]", "values": [{"measurement": "Ca^2+ signal, mean rfu", "setting": "[1]; 50 µM hexamethonium + 100 µM acetylcholine, p > .9999 vs acetylcholine (6222)", "result": 6228, "unit": "rfu"}]}]}
